Data on 80 molecules can be found in the METLIN SMRT retention time set (Domingo-Almenara et al. 2019).

This data set in a line: gradient 5% acetonitrile 3 min, to 50% in 2 min, to 85% in 15 min, held 3 min, 100 µL/min. To be noted: column: Zorbax Extend-C18 2.1 x 50 mm; eluents: water / acetonitrile, 0.1% formic acid. The procedure, abridged:
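A Zorbax Extend-C18 column (2.1 × 50 mm, 1.8 μm) run at 100 μL/min with water and acetonitrile, both containing 0.1% formic acid, separated mixtures of ~100 pure standards. The HPLC was coupled to a quadrupole time-of-flight mass spectrometer operated in positive and negative ionization mode, with dead and dwell volumes of 40 μL and 900 μL. Each retention time was taken from a computationally picked adduct peak that was then manually inspected.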
`Cc1ccc2c(c1)C1CC(C)(O2)N(c2ccc(C(=O)O)cc2)C(=O)N1` (stereo not given) had an RP-LC retention time of 709 s.
For the molecule `COc1ccc(CCN2CC(C(=O)N3CCN(C(C)C)CC3)CC2=O)cc1OC` (stereo not given), the RP-LC retention time amounted to 553 s.
In turn, `CN1C(=O)c2cccnc2Sc2cc(NC(=O)C3CC3)ccc21` displayed an RP-LC retention time of 650 s.
Consider `CCOC(=O)C(C)Sc1ccc2nnc(CCNC(=O)c3ccc(OC)cc3)n2n1` (stereo not given), for which the RP-LC retention time stood at 647 s.
Then `C=CCNc1c(C(=O)OC)c(=O)[nH]c2ccc(F)cc12`, with 679 s; and `Cc1cc(C)cc(NC(=O)C2CCN(S(=O)(=O)c3ccc4c(c3)CCCC(=O)N4)CC2)c1`, with 834 s.
For `Cn1cnc2c(C(=O)N3CCc4ccccc4C3)nn(-c3ccccc3)c2c1=O` the value was 831 s; for `COc1cccc(NC(=O)Nc2c(-c3ccccc3)nc3ccccn23)c1`, 665 s; for `O=C(c1nc2nc(-c3ccco3)cc(C(F)(F)F)n2n1)N1CCN(c2ccccn2)CC1`, 630 s.
As to `O=C(NCc1nc2ccccc2n1CC(=O)N1CCCCCC1)c1ccco1`, the RP-LC retention time was 627 s.
For `CC1(C)CCC(NC(=O)[C@@H](N)CCC(=O)O)CC1` the value was 654 s.
For `O=C1C2CC3N1CCC31c3ccccc3-n3c1c2ccc3=O` (stereo not given) the value was 721 s; for `CNC(=O)C1CN(C(=O)c2ccccc2Cl)CC12CCCC2` (stereo not given), 665 s; for `CCCS(=O)(=O)N1CCCC(Cn2c(C)nc3cccnc32)C1` (stereo not given), 572 s.
Then `CC(C)C(=O)NCc1csc(C2CCCN(C(=O)CC3CCCCC3)C2)n1` (stereo not given), with 816 s; and `Cc1noc(C)c1S(=O)(=O)N1CCC(C(=O)NCc2csc(-c3ccccc3)n2)CC1`, with 870 s; and `CN1C(=O)Cc2cc(C(=O)NCc3ccc(F)c(Cl)c3)ccc21`, with 766 s.
Consider `CCn1c(N2CCCC(C(=O)N3CCN(Cc4ccc5c(c4)OCO5)CC3)C2)cc(=O)n(C)c1=O` (stereo not given), for which the RP-LC retention time was determined as 616 s.
For `CC(C)n1nc(CNC(=O)C2CCN(S(=O)(=O)c3ccccc3)CC2)c2ccccc21` the value was 918 s; for `Cc1ccc(-c2nnc(N3CCC(C(=O)NCC4CCCCC4)CC3)o2)cc1`, 959 s; for `COCCCNC(=O)C1CCN(c2nc3ccc(-c4cccnc4)nc3s2)CC1`, 585 s.
Then `Cc1cccc(-c2nc3nc(C)cc(N4CCN(c5ccccn5)CC4)n3n2)c1`, with 638 s.
For `CN(CCc1noc(COc2ccccc2F)n1)C(=O)NCCc1ccccc1` the value was 876 s; for `CN1CCC(N2CCN(c3ncccc3-c3nnc(-c4ccc(Cl)cc4)o3)CC2)CC1`, 586 s; for `COCCNC(=O)C1CCC(=O)N(c2ccc(OC)cc2)C1c1ccc(F)cc1` (stereo not given), 658 s.
Consider `CCc1onc(C)c1C1CCCN1C(=O)c1cccc(F)c1` (stereo not given), for which the RP-LC retention time came out at 784 s.
For `Cn1nccc1-c1cccc(-c2noc(-c3ccc(CS(=O)(=O)c4ccccc4)cc3)n2)c1` the value was 1080 s; for `COc1ccc(-c2cc3c(=O)n(Cc4nc(-c5ccc(OC)cc5)oc4C)ccn3n2)cc1`, 1070 s; for `O=C(NCc1ccccn1)C1(CCO)CCN(c2ncccn2)C1` (stereo not given), 522 s.
Turning to `O=[N+]([O-])c1cccc(C2Oc3ccccc3C3CC(c4cccnc4)=NN32)c1` (stereo not given), the RP-LC retention time was determined as 790 s.
`CCc1nccn1Cc1noc(-c2ccc(F)cc2)n1` had an RP-LC retention time of 615 s.
For `CCc1nn(C)c(=O)c2cc(S(=O)(=O)NCc3cc(F)cc(F)c3)cn12` the value was 882 s; for `CC(=O)N1CCc2cc(N3CC(C(=O)NCc4ccc(F)cc4Cl)CC3=O)ccc21` (stereo not given), 713 s; for `O=C(c1cccc(Br)c1)N1CCc2nc(-c3ccc(Cl)cc3)ncc2C1`, 1160 s.
In turn, `COCCN1C(=O)CC[C@]2(C(=O)NCc3ccc(OC)cc3OC)CCCC[C@@H]12` came in with an RP-LC retention time of 698 s.
`Fc1ccccc1-c1ccc(CNCc2ccccn2)o1` gave an RP-LC retention time of 655 s.
For `Cc1cccn2cc(-c3ccc(NC(=O)c4ncccn4)cc3)nc12` the value was 680 s; for `O=C(Cn1nc2c(Oc3cccc(F)c3)nccn2c1=O)Nc1ccccc1F`, 815 s; for `O=C(NCCCO)C(=O)Nc1ccc(Cl)c(C(F)(F)F)c1`, 795 s.
As for `CCCS(=O)(=O)c1nc2ccc(NS(=O)(=O)c3ccc(OC)c(OC)c3)cc2s1`, the RP-LC retention time stood at 853 s.
With `CCn1cnnc1C1CCCCN1C(=O)Cc1c[nH]c2ccccc12` (stereo not given), the RP-LC retention time turned out to be 649 s.
For `CCNC(=O)N1CCCC(Cn2cnc3cccnc32)C1` (stereo not given) the value was 578 s; for `COc1ccccc1N1CCN(S(=O)(=O)CCNC(=O)CCCc2ccccc2)CC1`, 832 s; for `c1cn(-c2ccc(SC3CCCC3)nn2)cn1`, 604 s.
Molecule `Cc1ccc(CN2CC[C@]3(CO)CN(Cc4ccccc4)C[C@@H]3C2)cc1C` came in with an RP-LC retention time of 570 s.
For `COc1ccc(-c2ncc3c(n2)CCN(S(=O)(=O)c2cc(C)ccc2C)C3)cc1` the value was 1150 s.
For `CN(C)CCNC(=O)C(C)(C)Oc1ccc(Cl)cc1` the value was 629 s; for `Cn1nnnc1C1CCCN(C(=O)C2CCCC2)C1` (stereo not given), 665 s; for `COc1ccc(C(=O)Nc2cccn3nc(C(C)C)nc23)cc1`, 873 s.
`O=C(Nc1cccc(-c2ccc(N3CCCC3)nn2)c1)c1c(F)cccc1F` yielded an RP-LC retention time of 647 s.
The molecule `Cc1ccc(NC(=O)C2CCCN(S(=O)(=O)c3c[nH]c(C(=O)N4CCCC4)c3)C2)nc1` (stereo not given) registered an RP-LC retention time of 824 s.
Then `COc1ccc(CN2C=C(C(=O)OCc3ccccc3OC)C(C)=NS2(=O)=O)cc1`, with 1120 s.
In the case of `COc1ccc(-c2noc(-c3nc(-c4ccc(OC)c(OC)c4)no3)n2)cc1OC`, the RP-LC retention time is 1080 s.
For `Cc1nc(-c2cccnc2)nc2c1CCC(=O)N2Cc1ccccn1` the value was 566 s; for `O=C(Cn1nc2n(c1=O)CCCC2)NCc1ccc2c(c1)OCO2`, 619 s; for `Cn1c(=O)c2cc(C(=O)NCc3cccc(C(F)(F)F)c3)nn2c2ccccc21`, 945 s.
For `Cc1cc(N2CCN(C(=O)Cc3ccccc3Br)CC2)nc2nncn12`, the RP-LC retention time is 622 s.
Then `Cc1ccc(-c2noc(CN3N=NC4C(=O)N(c5ccc(C)c(C)c5)C(=O)C43)n2)cc1C` (stereo not given), with 1140 s; and `Cc1cnc(C2CC2)n1C1CCCN(C(=O)NC(C)C)C1` (stereo not given), with 587 s; and `Cc1cc(=O)n(CC(=O)Nc2ccc(Br)cc2)c(N2CCc3ccccc3C2)n1`, with 885 s.
Then `CN(C)[C@@H]1CN(C(=O)c2ccsc2)CC[C@]1(O)c1ccccc1`, with 576 s.
Then `O=C(NCCc1c[nH]c2ccccc12)c1cc2occc2c(Nc2ccc(F)cc2)n1`, with 1020 s.
`Cc1ccc(C(CC(=O)NCCCN2CCCC2=O)N2Cc3ccccc3C2=O)cc1` (stereo not given) had an RP-LC retention time of 685 s.
As for `CCOC(=O)CCNC(=O)N1CCC(CC2CC2)(NS(C)(=O)=O)CC1`, the RP-LC retention time came to 672 s.
Then `CCOC(=O)c1ccc(N2C=C(C(=O)N3CCCC3)S(=O)(=O)c3ccc(F)cc32)cc1`, with 845 s.
Take `COC(=O)NCc1nnnn1-c1ccc(OC)cc1`: the RP-LC retention time amounted to 616 s.
Then `[N-]=[N+]=Nc1ccc2c(c1)Sc1ccccc1N2CCCCN1CCN(Cc2ccc(C(=O)c3ccccc3)cc2)CC1`, with 1040 s; and `COc1ccc(NC(=O)Cn2c(=O)n(-c3ccccc3)c(=O)c3c2cc(C)n3C)cc1OC`, with 791 s; and `Cc1nc2cc(N3CC(C(=O)N4CCN(c5ccc(F)cc5)CC4)CC3=O)ccc2o1` (stereo not given), with 749 s.
In the case of `Cc1nc2c(c(SCC(=O)Nc3nc(-c4ccccc4)cs3)n1)CCC2`, the RP-LC retention time was determined as 982 s.
For `COc1ccc(S(=O)(=O)N2CCCC(C(=O)NCc3cccnc3)C2)cc1C` (stereo not given) the value was 623 s; for `O=S(=O)(NC1CCCC1)c1cccc(-c2nc(-c3ccccc3)no2)c1`, 1170 s; for `CC(C)C(NC(=O)Cc1ccccc1F)C(=O)Nc1nc2ccccc2[nH]1` (stereo not given), 692 s.
With `CCOc1ccc(CNC(=O)CN2C(=O)CSc3cccn3-c3ccccc32)cc1`, the RP-LC retention time is 914 s.
Then `Cc1cccc(N2C=C(C(=O)N3CCOCC3)S(=O)(=O)c3ccc(F)cc32)c1`, with 793 s.
`O=C(NCCN1CCOCC1)c1c2c(nc3ccccc13)C(=O)N(C1CCCCC1)C2` returned an RP-LC retention time of 599 s.
For `Cc1ccn2c(Nc3ccccc3C)c(-c3cccc(O)c3)nc2c1` the value was 673 s.
Regarding `Cc1nn(C(=O)C(C)(C)C)c(C)c1S(=O)(=O)N1CCOCC1`, the RP-LC retention time came to 1090 s.
`Cc1[nH]c2ccc(-c3nnc(SCC(=O)NCc4nc5ccccc5[nH]4)o3)cc2c1C` registered an RP-LC retention time of 642 s.
For `COc1ccc(-c2cn3c(CC(=O)Nc4ccc(Cl)cc4)csc3n2)cc1OC` the value was 799 s.
